A short description of data set [1]: Clearance rate constant of labelled tracer by external ambulatory renal monitor. It counts as in vivo. The settings on record: patient in intensive care unit, initial (moderately decreased renal function). As to the method: A more detailed description of an example of a renal function monitor follows, in which clearance of a radiolabelled injected substance was measured according to the detected radiation according to the invention. The performance of the apparatus was tested by comparison with results obtained using standard techniques.
Data collection was performed using a battery-operated, pocket-size lightweight data logger having 32K total RAM (Tattletale, Model V, Onset Computer Corp., N. Falmouth, Mass.). The detector was a 16 mm diameter×2 mm thick cadmium-telluride (Cd-Te) detector (Radiation Monitoring Devices, Watertown, Mass.) connected to a preamplifier and a lower level discriminator. […]
The usual diet was not altered. Weight and height were measured soon after arrival at the treatment facility. […]
To determine the value of the invention for monitoring of renal function, two patients at risk of ARF with serum creatinine ≥2 mg/dl were monitored before, during and after an angiographic procedure. […] The rate constant, as measured according to the invention, decreased in this patient from 2.85×10^-3 min^-1 to 0.2×10^-3 min^-1; and the serum creatinine in this patient increased from 2.4 to 2.8 mg/dl over the succeeding 12 hours.
The rate of clearance of ^99m Tc-DTPA was also monitored in a patient in an intensive care unit. […]

The conditions of data set [2]: human, in vivo; cited from earlier work.

Structures are written as SMILES.

Compound `O=C([O-])CN(CCN(CC(=O)[O-])CC(=O)[O-])CCN(CC(=O)[O-])CC(=O)[O-].[99Tc+4]` [^99m Tc-DTPA] displayed a rate constant in data set [1] of 0.0035 min⁻¹. Further, in data set [2], the “rate constant (Normal)” value was 0.0065 min⁻¹.

The values are drawn from patent publication US5647363A, “Ambulatory clearance function monitor” (The General Hospital Corporation, priority 1994, dated 1997).
